In patent publication US4145296A, “Weather-durable aqueous fire retardant stabilized against gelation” (priority 1977, dated 1979):
Where two headings read alike, the source gives them in different places. Each block holds one compound with its values, some of them ahead of it.

Key:
[1] = thermodynamic; cited from earlier work
[2] = for Viscosity in centipoises at 1 Hr. / Viscosity in centipoises at 4 Hrs. / Viscosity in centipoises at 6 Min. / Viscosity in centipoises at 21-28 Hrs. / Viscosity in centipoises at 0: additive at 3 percent weight; for gel inhibition / stabilization of aqueous dispersion (in words): conclusion from Tables II and III
[3] = pH of the aqueous dispersion; format: physicochemical; details: for Initial Dispersion pH: additive at 3 percent weight in Control dispersion; for pH (MEA At 3%): 3% MEA

SMILES: CC(O)CN(CC(C)O)CC(C)O (stereo not shown) [Triisopropanolamine]
- pKa at 25° C. [1]: 7.86

SMILES: N [Ammonium hydroxide]
- Viscosity in centipoises at 1 Hr. ([2]; 1 Hr.): 550 centipoises
- Viscosity in centipoises at 4 Hrs. ([2]; 4 Hrs.): 575 centipoises
- Viscosity in centipoises at 6 Min. ([2]; 6 Min.): 400 centipoises
- Viscosity in centipoises at 21-28 Hrs. ([2]; 21-28 Hrs.): 750 centipoises
- Viscosity in centipoises at 0 ([2]; time 0): 400 centipoises
- gel inhibition / stabilization of aqueous dispersion (in words) [2]: good stabilization results

SMILES: NCCO [Monoethanolamine, 2-aminoethanol]
- pH (MEA At 3%) ([3]; 1 Hr.): 9.1
- pH (MEA At 3%) ([3]; 4 Hrs.): 9.1
- pH (MEA At 3%) ([3]; 6 Min.): 9.2
- pH (MEA At 3%) ([3]; 21-28 Hrs.): 8.7
- pH (MEA At 3%) ([3]; time 0): 9.3
- Viscosity with Monoethanolamine (MEA) ([2]; 1.5% MEA in Control dispersion, time 0): 610 Centipoises
- Viscosity with Monoethanolamine (MEA) ([2]; 1.5% MEA, 1 Hr.): 760 Centipoises
- Viscosity with Monoethanolamine (MEA) ([2]; 1.5% MEA, 4 Hrs.): 1125 Centipoises
- Viscosity with Monoethanolamine (MEA) ([2]; 1.5% MEA, 6 Min.): 625 Centipoises
- Viscosity with Monoethanolamine (MEA) ([2]; 2% MEA in Control dispersion, time 0): 650 Centipoises
- Viscosity with Monoethanolamine (MEA) ([2]; 2% MEA, 1 Hr.): 750 Centipoises
- Viscosity with Monoethanolamine (MEA) ([2]; 2% MEA, 4 Hrs.): 925 Centipoises
- Viscosity with Monoethanolamine (MEA) ([2]; 2% MEA, 6 Min.): 700 Centipoises
- Viscosity with Monoethanolamine (MEA) ([2]; 3% MEA in Control dispersion, time 0): 625 Centipoises
- Viscosity with Monoethanolamine (MEA) ([2]; 3% MEA, 1 Hr.): 700 Centipoises
- Viscosity with Monoethanolamine (MEA) ([2]; 3% MEA, 4 Hrs.): 750 Centipoises
- Viscosity with Monoethanolamine (MEA) ([2]; 3% MEA, 6 Min.): 700 Centipoises
- Viscosity with Monoethanolamine (MEA) ([2]; 3% MEA, 21-28 Hrs.): 1150 Centipoises

SMILES: CCN1CCOCC1 [N-Ethylmorpholine]
- pKa at 25° C. [1]: 7.67

SMILES: CN(C)C=O [Dimethyl formamide]
- Viscosity in centipoises at 1 Hr. ([2]; 1 Hr.): 900 centipoises
- Viscosity in centipoises at 4 Hrs. ([2]; 4 Hrs.): 3100 centipoises
- Viscosity in centipoises at 6 Min. ([2]; 6 Min.): 500 centipoises
- Viscosity in centipoises at 0 ([2]; time 0): 475 centipoises

SMILES: C1CCNCC1 [Piperidine]
- Initial Dispersion pH [3]: 9.9
- Viscosity in centipoises at 1 Hr. ([2]; 1 Hr.): 725 centipoises
- Viscosity in centipoises at 4 Hrs. ([2]; 4 Hrs.): 800 centipoises
- Viscosity in centipoises at 6 Min. ([2]; 6 Min.): 650 centipoises
- Viscosity in centipoises at 0 ([2]; time 0): 600 centipoises

SMILES: NCCN [Ethylenediamine, diaminoethane]
- pKa at 25° C. [1]: greater than 8.0
- Viscosity in centipoises at 1 Hr. ([2]; 1 Hr.): 525 centipoises
- Viscosity in centipoises at 4 Hrs. ([2]; 4 Hrs.): 500 centipoises
- Viscosity in centipoises at 6 Min. ([2]; 6 Min.): 500 centipoises
- Viscosity in centipoises at 0 ([2]; time 0): 450 centipoises
- gel inhibition / stabilization of aqueous dispersion (in words) [2]: superior gel inhibitors

More lines, main results first:

- Viscosity in centipoises at 1 Hr. ([2]; 1 Hr., listed as Ammonium carbonate (20%)): 850 centipoises
- Viscosity in centipoises at 1 Hr. ([2]; 1 Hr., listed as Ammonium carbonate (100%)): 525 centipoises
- Viscosity in centipoises at 4 Hrs. ([2]; 4 Hrs., listed as Ammonium carbonate (20%)): 1900 centipoises
- Viscosity in centipoises at 4 Hrs. ([2]; 4 Hrs., listed as Ammonium carbonate (100%)): 800 centipoises
- Viscosity in centipoises at 6 Min. ([2]; 6 Min., listed as Ammonium carbonate (20%)): 575 centipoises
- Viscosity in centipoises at 6 Min. ([2]; 6 Min., listed as Ammonium carbonate (100%)): 350 centipoises
- Viscosity in centipoises at 21-28 Hrs. ([2]; 21-28 Hrs.): gel
- Viscosity in centipoises at 0 ([2]; time 0, listed as Ammonium carbonate (20%)): 475 centipoises
- Viscosity in centipoises at 0 ([2]; time 0, listed as Ammonium carbonate (100%)): 300 centipoises
SMILES: N.N.O=C(O)O [Ammonium carbonate]
- longer term storage of the aqueous dispersion (in words) ([2]; longer term storage): evidence of polymerization and gas evolution

- Viscosity in centipoises at 1 Hr. ([2]; 1 Hr.): 900 centipoises
- Viscosity in centipoises at 4 Hrs. ([2]; 4 Hrs.): 1300 centipoises
- Viscosity in centipoises at 6 Min. ([2]; 6 Min.): 600 centipoises
- Viscosity in centipoises at 0 ([2]; time 0): 500 centipoises
SMILES: O=P(O)(O)OP(=O)(O)O [Tetrasodium pyrophosphate . 10H2 O]

- Initial Dispersion pH [3]: 7.2
- Viscosity in centipoises at 1 Hr. ([2]; 1 Hr.): 875 centipoises
- Viscosity in centipoises at 4 Hrs. ([2]; 4 Hrs.): 1900 centipoises
- Viscosity in centipoises at 6 Min. ([2]; 6 Min.): 550 centipoises
- Viscosity in centipoises at 0 ([2]; time 0): 425 centipoises
SMILES: O=P([O-])([O-])O.[Na+].[Na+] [Disodium phosphate anhydrous]

- Viscosity in centipoises at 21-28 Hrs. ([2]; 21-28 Hrs.): 1450 centipoises
SMILES: [K+].[OH-] [Potassium hydroxide]

- Initial Dispersion pH [3]: 8.7
- Viscosity in centipoises at 1 Hr. ([2]; 1 Hr.): 725 centipoises
- Viscosity in centipoises at 4 Hrs. ([2]; 4 Hrs.): 800 centipoises
- Viscosity in centipoises at 6 Min. ([2]; 6 Min.): 525 centipoises
- Viscosity in centipoises at 21-28 Hrs. ([2]; 21-28 Hrs.): 2700 centipoises
- Viscosity in centipoises at 0 ([2]; time 0): 550 centipoises
SMILES: C1COCCN1 [Morpholine, tetrahydro-p-oxazine]

- Initial Dispersion pH [3]: 6.6
- Viscosity in centipoises at 1 Hr. ([2]; 1 Hr.): 800 centipoises
- Viscosity in centipoises at 4 Hrs. ([2]; 4 Hrs.): 1800 centipoises
- Viscosity in centipoises at 6 Min. ([2]; 6 Min.): 650 centipoises
- Viscosity in centipoises at 0 ([2]; time 0): 600 centipoises
SMILES: NC(N)=O [Urea]

- Initial Dispersion pH [3]: 9.0
- Viscosity in centipoises at 1 Hr. ([2]; 1 Hr.): 750 centipoises
- Viscosity in centipoises at 4 Hrs. ([2]; 4 Hrs.): 875 centipoises
- Viscosity in centipoises at 0 ([2]; time 0): 600 centipoises
SMILES: OCCNCCO [Diethanolamine]

- Initial Dispersion pH [3]: 7.7
- Viscosity in centipoises at 1 Hr. ([2]; 1 Hr.): 850 centipoises
- Viscosity in centipoises at 4 Hrs. ([2]; 4 Hrs.): 1500 centipoises
- Viscosity in centipoises at 6 Min. ([2]; 6 Min.): 600 centipoises
- Viscosity in centipoises at 0 ([2]; time 0): 450 centipoises
SMILES: O.O.O.O.O.O.O.O.O.O.O.O.O=P([O-])([O-])[O-].[Na+].[Na+].[Na+] [Trisodium phosphate . 12H2 O]

- Initial Dispersion pH [3]: 6.7
- Viscosity in centipoises at 1 Hr. ([2]; 1 Hr.): 950 centipoises
- Viscosity in centipoises at 4 Hrs. ([2]; 4 Hrs.): 2000 centipoises
- Viscosity in centipoises at 6 Min. ([2]; 6 Min.): 550 centipoises
- Viscosity in centipoises at 0 ([2]; time 0): 500 centipoises
SMILES: C1N2CN3CN1CN(C2)C3 [Hexamethylene tetramine]

- Initial Dispersion pH [3]: 7.0
- Viscosity in centipoises at 1 Hr. ([2]; 1 Hr.): 975 centipoises
- Viscosity in centipoises at 4 Hrs. ([2]; 4 Hrs.): 2100 centipoises
- Viscosity in centipoises at 6 Min. ([2]; 6 Min.): 600 centipoises
- Viscosity in centipoises at 0 ([2]; time 0): 500 centipoises
SMILES: O.O.O.O.O.O.O.O=P([O-])([O-])O.[Na+].[Na+] [Disodium phosphate . 7H2 O]
